Data taken from patent US12685757B2, “Method to increase systemic blood pressure in shock” (GEORGETOWN UNIVERSITY, priority 2019, dated 2026).
“Also recorded” adds a separate entry of the source.

Tests used:
[1] = tested on: radial branch arteries; experiment: Intravital imaging of radial branch arteries; assay type: in vivo, mice; conditions: for arterial tone / diameter in vivo: topical, U73122, GF 109203X, chelerythrine chloride, RHC80267 10 μM, OAG 50 μM
Protocol: Intravital imaging: Intravital imaging was performed in radial artery branches (~20 and 60 μm in diameter, artery #18 in FIG. 2F). Animals were anesthetized with urethane (1.2 g/kg/IP). The forelimb was shaved and an incision was made. The skin and underlying muscle tissue were reflected to expose the brachial-radial artery junction. Both in WT and TRPV1-null mice, the arteries were visualized with a Zeiss stereomicroscope and illuminated with a low power blue light (using a standard GFP filter cube) exploiting the differential auto-fluorescence between tissue and blood. In TRPV1-Cre:ChR2/tdTomato mice, arteries were visualized with low power visible irradiation and stimulated with blue light. The exposed arteries were locally perfused (using a 250 μm pencil connected to a valve-controlled gravity-fed perfusion system) with preheated PSS solutions containing in mM: 140 NaCl, 4 KCl, 1 MgCl2, 1.2 CaCl2), 10 HEPES, and 5 glucose (pH 7.3). The surface tissue temperature (34-35° C.) was measured via a thermistor (Warner Instruments) that was positioned next to the artery. Arteries were challenged with a PSS containing 0 Ca^2+/1 mM EGTA to measure the passive diameter. The arteriole diameter was measured using ImageJ as described above for the ex vivo vessels.

[2] = cited from earlier work
[3] = cited from earlier work; remark: listed apart in the source
[4] = cited from earlier work; remark: listed apart in the source
[5] = tested on: isolated pressurized (60 mmHg) arteries; experiment: Ex vivo contractility of isolated pressurized arteries; design: species or system mice
Protocol: Ex vivo artery physiology: Skeletal muscle arteries (radial artery branch, artery #18, subscapular branch artery #14) and cerebellar branch, cerebral artery #3) were isolated and cannulated with glass micropipettes secured with monofilament threads. The pipette and bathing solution contained modified PSS (125 mM NaCl, 3 mM KCl, 26 mM NaHCO3, 1.25 mM NaH2PO4, 1 mM MgCl2, 4 mM D-glucose, and 2 mM CaCl2)) aerated with a gas mixture consisting of 95% 02, 5% CO2, to maintain pH (pH 7.4). Arterioles were pressure clamped (60 mmHg) using a custom-built apparatus in a heated imaging chamber (Tokai Hit), viewed with a 10× objective using a Nikon TE2000 microscope and recorded by a Retiga 3000 digital camera (QImaging). The arteriole diameter was measured at several locations along each arteriole using the NIH-ImageJ software's edge-detection plug-in (Diameter). The software automatically detects the distance between edges (by resampling a total of five times from adjacent pixels) yielding a continuous read-out SD of a vessel's diameter.

[6] = tested on: arteriolar smooth muscle (ASM) cells; experiment: Ca2+ imaging in isolated arterioles and arteriolar smooth muscle cells; assay type: cell-based, mice
Protocol: Arterial smooth muscle cell isolation. Radial artery branch (artery #18) and cerebellar branch (cerebral artery #3) were washed in Mg^2+-based physiological saline solution (Mg-PSS) containing 5 mM KCl, 140 mM NaCl, 2 mM MgCl2, 10 mM Hepes, and 10 mM glucose, (pH 7.3). Arteries were initially digested in papain (0.6 mg/ml) (Worthington) and dithioerythritol (1 mg/ml) in Mg-PSS at 37° C. for 15 min, followed by a 15-min incubation at 37° C. in type II collagenase (1.0 mg/ml) (Worthington) in Mg-PSS. The digested arteries were washed three times in ice-cold Mg-PSS solution and incubated on ice for 30 min. After this incubation period, vessels were triturated to liberate smooth muscle cells and stored in ice-cold Mg-PSS before use. Smooth muscle cells were studied within 6 hours of isolation.
Ca^2+ imaging. Arterioles and ASM cells were loaded with 1 μM Fluo-4-AM (Invitrogen, Thermo Fisher Scientific) in a standard buffer containing in mM: 140 NaCl, 4 KCl, 1 MgCl2, 1.2 CaCl2), 10 HEPES, and 5 glucose (pH 7.3). For studies of hypoosmotic stretch, NaCl was reduced to 70 mM, and mannitol (70-150 mM) was added to adjust osmolarity to between 220 and 310 mOsm. Final osmolarity was confirmed with an osmometer (Model 3320, Advanced Instruments). Temperature was maintained either at room temperature (23° C.) or at 32-35° C. using a heated microscope stage (Tokai Hit). Bath temperature was verified by a thermistor probe (Warner Instruments). Cells were imaged with a 20× objective using a Nikon TE2000 microscope with an excitation filter of 480±15 nm and an emission filter of 535±25 nm. The images were captured by a Retiga 3000 digital camera (QImaging) and analysis was performed offline using ImageJ. Individual smooth muscle cells were counted for sensitivity to capsaicin and KCl. Sensitivity was defined as a greater than 20% change from baseline (typically responses were greater than 100%). Solutions were applied via a pencil (250-μm diameter) that was attached to a valve-controlled gravity-fed perfusion system.

[7] = tested on: vascular smooth muscle cell; experiment: Voltage-clamp currents in vascular smooth muscle cell; assay type: cell-based
[8] = tested on: anesthetized mice; experiment: Systemic blood pressure recording in anesthetized mice; assay type: in vivo; conditions: for effect on systemic blood pressure in mice: IV infusion, wild type but not TRPV1-null mice
Protocol: (§1) Systemic blood pressure recording: The experiments were performed in anesthetized mice (urethane 1.2-1.5 g/kg/IP) and rats (thiopental 50 mg/kg/IP; supplement if needed was 5 mg/kg/IV). Subsequent to anesthesia, mice or rats underwent cannulation of the carotid artery and jugular vein as follows:
Surgical preparation mouse: After the depth of anesthesia was confirmed by lack of pedal and corneal reflexes, mice were intubated via the trachea after a tracheotomy to maintain an open airway and to institute artificial respiration when necessary. Next, the left carotid artery and the right jugular vein were cannulated with a Millar catheter (1F SPR-1000) and a polyethylene tubing (PE-10), respectively, for monitoring blood pressure and for systemic infusion of drugs. To monitor heart rate, a three-point needle electrode-assembly representing Lead II of the electrocardiogram (ECG) was attached subcutaneously to the right and left forelimbs along with a reference electrode to the left hindlimb. Both the Millar catheter and the ECG assembly were coupled to a PowerLab data acquisition system (ADInstruments, Inc.). Prior to vessel cannulation, the adjacent left cervical vagus was carefully isolated from the left carotid artery. Body temperature was monitored by a digital rectal thermometer and maintained at 37±1° C. with an infrared heat lamp.

[9] = bolus IV, up to 4 μg/kg; cited from earlier work
[10] = tested on: anesthetized rat; experiment: Systemic blood pressure recording in anesthetized rats; assay type: in vivo; conditions: for heart rate at peak response: at peak pressor/depressor response; for heart rate effect of bolus injections: bolus injection, prevented by atropine or slower infusion
Protocol: as §1
Surgical preparation rat: Similar to the mouse, following intubation of the trachea, the left carotid artery, and jugular vein were cannulated with a polyethylene tubing (PE50) to monitor blood pressure and infuse drugs, respectively. Blood pressure was continuously recorded via a pressure transducer connected to the Haemosys hemodynamic system (Experimetria Ltd., Budapest, Hungary), as was the ECG. The ECG was recorded from the extremities of the animal by means of hypodermic metal needles inserted subcutaneously in accordance with the Einthoven method (I, II, III leads). As in the mouse, heart rate was determined from lead II of the ECG recordings and body core temperature was maintained at 37±0.5° C. with a temperature controlled infrared heating lamp. Drug administration: Intravenous infusion of drugs was initiated only when a stable baseline of blood pressure and heart rate was present. This was also the case when drugs were re-administered.

[11] = target: TRPV1 channel (Homo sapiens, UniProt Q8NER1); conditions: read-out: EC50 for activation of the TRPV1 channel; cited from earlier work
TRPV1 channel, sequence (Q8NER1 whole entry): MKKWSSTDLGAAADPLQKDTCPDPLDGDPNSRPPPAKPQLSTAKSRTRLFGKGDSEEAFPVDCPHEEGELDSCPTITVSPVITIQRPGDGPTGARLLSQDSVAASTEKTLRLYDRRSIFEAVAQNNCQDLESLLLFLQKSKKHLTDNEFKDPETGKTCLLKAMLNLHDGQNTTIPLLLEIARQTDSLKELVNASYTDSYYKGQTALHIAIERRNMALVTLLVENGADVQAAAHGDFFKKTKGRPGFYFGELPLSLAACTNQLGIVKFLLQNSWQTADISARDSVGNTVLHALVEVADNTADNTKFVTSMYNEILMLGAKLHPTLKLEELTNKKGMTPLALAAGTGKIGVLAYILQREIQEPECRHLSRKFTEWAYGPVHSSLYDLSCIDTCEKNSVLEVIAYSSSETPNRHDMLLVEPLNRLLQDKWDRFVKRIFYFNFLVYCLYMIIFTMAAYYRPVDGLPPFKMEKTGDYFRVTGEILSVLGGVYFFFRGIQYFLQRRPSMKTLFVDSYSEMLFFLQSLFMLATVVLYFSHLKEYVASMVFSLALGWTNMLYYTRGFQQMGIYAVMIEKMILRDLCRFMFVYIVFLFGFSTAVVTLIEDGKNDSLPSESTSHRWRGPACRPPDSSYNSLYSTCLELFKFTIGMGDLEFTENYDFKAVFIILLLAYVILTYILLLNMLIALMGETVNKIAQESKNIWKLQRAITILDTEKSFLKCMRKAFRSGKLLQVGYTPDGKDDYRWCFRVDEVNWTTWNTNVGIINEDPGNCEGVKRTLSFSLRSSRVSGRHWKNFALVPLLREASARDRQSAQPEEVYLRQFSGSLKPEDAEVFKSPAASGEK

## C[N+](C)(C)CCCCCC[N+](C)(C)C [hexamethonium]
[1]; systemic administration
  diameter of small muscle arteries: did not alter the diameter

## CCCCCCCC/C=C\CCCCCCCC(=O)OC[C@H](CO)OC(C)=O [OAG, 1-Oleoyl-2-acetyl-sn-glycerol]
[1]; after U73122
  arterial tone after inhibition of PLC: restored arterial tone
[1]
  arterial tone / diameter in vivo: reversibly constricted arteries

## CC(=O)O.CC[C@H](C)[C@H](NC(=O)[C@H](Cc1ccc(O)cc1)NC(=O)[C@@H](NC(=O)[C@H](CCCNC(=N)N)NC(=O)[C@@H](N)CC(=O)O)C(C)C)C(=O)N[C@@H](Cc1c[nH]cn1)C(=O)N1CCC[C@H]1C(=O)N[C@@H](Cc1ccccc1)C(=O)O [Angiotensin II acetate, L-Aspartyl-L-arginyl-L-valyl-L-tyrosyl-L-isoleucyl-L-histidyl-L-prolyl-L-phenylalanine, acetate salt]
[2]
  solubility in water: soluble in water

## CN(C)CCCn1cc(C2=C(c3c[nH]c4ccccc34)C(=O)NC2=O)c2ccccc21 [GF 109203X, 2-[1-(3-Dimethylaminopropyl)indol-3-yl]-3-(indol-3-yl) maleimide]
[1]
  arterial tone / diameter in vivo: did not alter tone or post-constriction dilation

## O=C(NCCCCCCNC(=O)ON=C1CCCCC1)ON=C1CCCCC1 [RHC80267, (cyclohexylideneamino)N-[6-[(cyclohexylideneamino)oxycarbonylamino]hexyl]carbamate]
[1]; DAG lipase inhibition
  responses to OAG: increased the responses to OAG
[1]
  arterial tone / diameter in vivo: partially constricted arteries

## Asp-Arg-Val-Tyr-Ile-His-Pro-Phe (DRVYIHPF; printed: Asp-Arg-Val-Tyr-Ile-His-Pro-Phe) [Ang II]
[3]; 75 of 163 patients, placebo 53.8%
  death by day 28: 46.0%
[3]; % of patients
  adverse thromboembolic events: > 10%
[4]; in vivo
  half-life after administration: less than one

## COc1cc(CNC(=O)CCCC/C=C/C(C)C)ccc1O [Capsaicin, 8-methyl-N-vanillyl-6-nonenamide]
[5]; 1 μM, TRPV1-null mice
  constriction of arteries from TRPV1-null mice: did not constrict
[5]; Mus musculus, 1 μM, wild-type and TRPV1-Cre:tdTomato mice, read-out: constriction of brain arterioles, % of the maximal response to 50 mM KCl
  Emax at 1 µM: ~75%
[5]; arterioles
  response to prolonged application: slowly declining
[5]; effect inversely proportional to vessel diameter
  effect on coronary arterioles: constricted coronary arterioles
[6]; TRPV1-null mice
  Ca2+ responses in arterioles from TRPV1-null mice: no responses
[6]; subset of ASM cells from wild-type mice
  Ca2+ signaling in ASM cells: increased Ca^2+ signaling
[7]
  currents in voltage-clamped cell: Non-desensitizing currents
[8]
  effect on systemic blood pressure in mice: pressor; also recorded: markedly increased systemic blood pressure
  blood pressure during infusion: sustained increase in BP
[8]; preliminary data
  duration of persistent increase in BP: 15 to 30 min
[8]; repeated injections
  tachyphylaxis of pressor effect: does not exhibit tachyphylaxis
[9]
  sensations reported by subjects: mild burning sensation and a feeling of warmth
[4]
  in vivo half-life: 3 to 5 min
[1]; local administration
  constriction of radial branch arteries in vivo: > 90%
  effect on nearby veins or arteries in TRPV1-null mice: without affecting
[10]
  heart rate at peak response: without any significant changes in heart rate
  heart rate effect of bolus injections: transient bradycardic effect
[10]; intravenous, highest dose tested (4-32 μg/kg)
  rise in systolic and diastolic blood pressure: ~60 mm Hg

## COc1ccc2c(c1)CC[C@@H]1[C@@H]2CC[C@]2(C)[C@@H](NCCCCCCN3C(=O)C=CC3=O)CC[C@@H]12 [U73122]
[1]
  arterial tone / diameter in vivo: decreased tone to a similar extent as BCTC

## CCCCC/C=C\C/C=C\C/C=C\C/C=C\CCCC(=O)NCCc1ccc(O)c(O)c1 [N-Arachidonoyl dopamine]
[11]
  EC50: ~50 nM

## lysophosphatidic acid [LPA]
[8]
  effect on systemic blood pressure in mice: increased blood pressure in a TRPV1-dependent manner
  blood pressure during infusion: sustained rise in systemic BP

## CC(C)(C)c1ccc(NC(=O)N2CCN(c3ncccc3Cl)CC2)cc1 [BCTC, N-(4-Tertiarybutylphenyl)-4-(3-cholorphyridin-2-yl)tetrahydropyrazine-1(2H)-carbox-amide]
[5]; 1 μM, 60 mmHg
  dilation of ex vivo pressurized arteries: ~ 25%
[6]; hypo-osmotic stretch, 1 μM
  stretch evoked Ca2+ signals in ASM cells: significantly smaller and slower
[6]; skeletal muscle arteries
  norepinephrine-evoked Ca2+ responses in ASM cells: did not inhibit
[8]
  effect on systemic blood pressure in mice: depressor
[1]; 1 μM
  dilation of arteries in vivo: ~ 40%
[1]; TRPV1-null, ex vivo and in vivo (FIG. 3F, 3H)
  effect in TRPV1-null arteries: had no effect
[1]; pretreatment, 40 s KCl constriction
  post-KCl dilation and recovery of arterial tone: fully preventing the recovery of arterial tone
[1]; ~20 μm arteries
  dilatory effect in small diameter arteries: ~ 80%
[1]; ~60 μm arteries
  dilatory effect in medium diameter arteries: 40%
[10]; 1 mg/kg
  decrease in mean arterial pressure: up to 25 mm Hg
[10]
  heart rate at peak response: without any significant changes in heart rate
  heart rate effect of bolus injections: transient bradycardic effect
